From patent EP4653448A1, “COMPOUND FOR RNA CAPPING AND USE THEREOF” (Guangzhou Henovcom Bioscience Co. Ltd., priority 2023, dated 2024) come the findings set out here.

Test [1] has as its target T7 RNA Polymerase (Escherichia phage T7, UniProt P00573). As to the kind of experiment: Detection of the efficiency of mRNA capping synthesis (in vitro transcription, product yield). The test is classed as biochemical. Particulars: 20 µL mRNA synthesis reaction system. The method, then:
• 1) The plasmids were linearized and the DNA templates were purified. • 2) The mRNA was synthesized by in vitro transcription, using the capping structure prepared in the present disclosure, positive control CleanCap®AG (3'OMe) (Trilink, N-7413), negative control (uncapped mRNA) and blank control (DNase/RNase-Free water), respectively. Reaction system
The reaction was carried out at 37°C for 2 to 3 h. TURBO DNase digestion was carried out for 15 min. The mRNA was precipitated by LiCl for 30 min or more or overnight, and the mRNA precipitate was washed with 75% ethanol, dried briefly to evaporate the ethanol, and the mRNA was redissolved with RNase-Free water.
In the reaction system listed in Table 1, since the solubility of different test compounds varies in different solutions, adjustments can be made as needed. For ease of operation, the commonly used concentrations are 10 mM and 100 mM. […] If the initial concentration of the test compound is 10 mM, the dosage is 8 µL. Regardless of the initial concentration, the dosages of different test compounds were the same, and the final concentrations were also the same.
For example, when testing compounds S17 and S19, their initial concentration was 10 mM, and the addition volume was 8 µL. When testing compounds 5 and 6, their initial concentration was 100 mM, and the addition volume was 0.8 µL.
The assay was performed according to the method described in Example 20.

Test [2] concerns HEK293T cells. Description: Expression efficiency of capped luciferase mRNAs in HEK293T cells. It is filed as cell-based. Particulars: 6 h after transfection of capped luciferase mRNA. Here is the method: • 1) HNE293T cells were cultured in DMEM medium containing 10% FBS and penicillin/streptomycin at 37°C and 5% CO2. • 2) The cultured HEK293T cells were spread in a 96-well plate with 1.25 × 10^4 cells per well. • 3) After the cells completely adhered to the wall, 0.5 µg of a mixture of mRNA sample and Polyplus jet[…] was added to each well of cells, and cultured at 37°C and 5% CO2 for 6 h. • 4) The growth medium was removed from the cells to be tested and the cells were rinsed with PBS. After centrifugation to remove PBS, 50 µL of 1x lysis buffer was added thereto, and cells and all liquid were transferred to a microcentrifuge tube, and then centrifuged at 12000 x g at 4°C for 2 min. • 5) The supernatant was transferred to a new tube. Fluorescence readings were detected using the ONE-Glo Luciferase Assay System Kit.
All test compounds, N-7413, negative control and blank control were tested under the same conditions, and some experimental results in the test results are shown in Table 3. Table 3. Relative fluorescence readings for capped mRNAs
The assay was performed according to the method described in Example 21. All test compounds, N-7413, negative control and blank control were tested under the same conditions, and some experimental results in the test results are shown in Table 5. Table 5 Relative fluorescence readings for capped mRNAs

The mark [3] stands for this setting: reading of N-7413 = 1 (Table 5).
Setting [4] is: test compound 4 mM, 37°C 2 to 3 h (Table 2).
The mark [5] stands for this setting: 0.5 µg per well, reading of N-7413 = 1 (Table 3).

Sequence of T7 RNA Polymerase (P00573 whole entry): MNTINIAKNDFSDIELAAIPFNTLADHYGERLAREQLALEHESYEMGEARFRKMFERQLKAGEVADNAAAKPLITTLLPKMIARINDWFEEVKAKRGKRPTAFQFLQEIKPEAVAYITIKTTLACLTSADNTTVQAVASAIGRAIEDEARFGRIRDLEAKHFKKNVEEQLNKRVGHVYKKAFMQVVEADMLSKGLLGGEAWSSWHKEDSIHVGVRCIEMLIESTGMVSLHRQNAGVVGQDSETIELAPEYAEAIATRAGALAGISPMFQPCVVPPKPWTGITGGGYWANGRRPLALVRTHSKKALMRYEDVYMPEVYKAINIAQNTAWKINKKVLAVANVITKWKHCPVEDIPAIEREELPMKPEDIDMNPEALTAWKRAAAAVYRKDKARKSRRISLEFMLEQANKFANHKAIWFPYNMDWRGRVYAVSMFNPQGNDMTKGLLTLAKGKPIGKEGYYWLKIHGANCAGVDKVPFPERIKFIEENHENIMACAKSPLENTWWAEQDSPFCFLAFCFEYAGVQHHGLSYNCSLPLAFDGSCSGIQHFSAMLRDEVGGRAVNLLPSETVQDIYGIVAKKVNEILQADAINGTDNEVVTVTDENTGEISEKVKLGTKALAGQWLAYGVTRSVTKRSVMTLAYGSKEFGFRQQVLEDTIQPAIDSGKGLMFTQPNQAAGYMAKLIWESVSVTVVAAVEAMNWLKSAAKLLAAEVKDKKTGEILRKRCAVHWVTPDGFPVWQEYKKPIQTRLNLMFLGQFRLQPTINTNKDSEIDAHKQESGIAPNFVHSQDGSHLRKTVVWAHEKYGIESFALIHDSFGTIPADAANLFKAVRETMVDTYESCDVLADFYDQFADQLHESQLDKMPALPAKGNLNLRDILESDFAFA

The molecule `CNc1ncnc2c1ncn2C1OC(COP(=O)(O)OP(=O)(O)OP(=O)(O)OCC2OC(n3c[n+](C)c4c(=O)[nH]c(N)nc43)C(O)C2(C)F)C(OP(=O)([O-])OCC2OC(n3cnc4c(=O)[nH]c(N)nc43)C(O)C2O)C1OC` (stereo not shown) [Compound D95] yielded a Final product mass in test [1] (method of Example 20 (Table 4)) of 111 µg. In test [2] (setting [3]), this molecule registered a Relative fluorescence reading of 0.83.
The matching figures for `CO[C@@H]1[C@H](OP(=O)([O-])OC[C@H]2O[C@@H](n3cnc4c(=O)[nH]c(N)nc43)[C@H](O)[C@@H]2O)[C@@H](COP(=O)(O)OP(=O)(O)OP(=O)(O)OC[C@H]2O[C@@H](n3c[n+](C)c4c(=O)[nH]c(N)nc43)[C@H](O)[C@]2(F)C(=O)N(C)C)O[C@H]1n1cnc2c(N)ncnc21` [Compound D82]: 146 µg and 1.63.
The molecule `COCC1(F)C(COP(=O)(O)OP(=O)(O)OP(=O)(O)OCC2OC(n3cnc4c(N)ncnc43)C(OC)C2OP(=O)([O-])OCC2OC(n3cnc4c(=O)[nH]c(N)nc43)C(O)C2O)OC(n2c[n+](Cc3ccc(C)cc3)c3c(=O)[nH]c(N)nc32)C1O` (stereo not shown) [Compound D93] came in with a Final product mass in test [1] (method of Example 20 (Table 4)) of 105 µg. Moreover, the Relative fluorescence reading in test [2] (setting [3]) came out at 1.95.
The matching figures for `COCC1(N=[N+]=[N-])C(COP(=O)(O)OP(=O)(O)OP(=O)(O)OCC2OC(n3cnc4c(N)ncnc43)C(OC)C2OP(=O)([O-])OCC2OC(n3cnc4c(=O)[nH]c(N)nc43)C(O)C2O)OC(n2c[n+](C)c3c(=O)[nH]c(N)nc32)C1O` (stereo not shown) [Compound D86]: 111 µg and 1.35.
`COC1C(OP(=O)([O-])OCC2OC(n3cnc4c(=O)[nH]c(N)nc43)C(O)C2O)C(COP(=O)(O)OP(=O)(O)OP(=O)(O)OCC2OC(n3c[n+](C)c4c(=O)[nH]c(N)nc43)C(O)C2(F)CN=[N+]=[N-])OC1n1cnc2c(N)ncnc21` (stereo not shown) [Compound D20] returned a Final product mass in test [1] (method of Example 20 (Table 4)) of 113 µg. Moreover, the Relative fluorescence reading in test [2] (setting [3]) was found to be 1.23.
As for `CO[C@@H]1[C@H](OP(=O)([O-])OC[C@H]2O[C@@H](n3cnc4c(=O)[nH]c(N)nc43)[C@H](O)[C@@H]2O)[C@@H](COP(=O)(O)OP(=O)(O)OP(=O)(O)OC[C@H]2O[C@@H](n3c[n+](C)c4c(=O)[nH]c(N)nc43)[C@H](O)[C@@H]2OC)O[C@H]1n1cnc2c(N)ncnc21` [Compound N-7413, reference compound], the Final product mass in test [1] (method of Example 20 (Table 4)) and in test [1] (setting [4]) was 122 µg in each case. Further, the Relative fluorescence reading in test [2] (setting [5]) and in test [2] (setting [3]) was 1.00 each time.
For `COC[C@]1(F)[C@@H](COP(=O)(O)OP(=O)(O)OP(=O)(O)OC[C@H]2O[C@@H](n3cnc4c(N)ncnc43)[C@H](OC)[C@@H]2OP(=O)([O-])OC[C@H]2O[C@@H](n3cnc4c(=O)[nH]c(N)nc43)[C@H](O)[C@@H]2O)O[C@@H](n2c[n+](C)c3c(=O)[nH]c(N)nc32)[C@@H]1O` [Compound D1], in test [2] (setting [3]), the Relative fluorescence reading stood at 2.07.
Turning to `COCC1(F)C(COP(=O)(O)OP(=O)(O)OP(=O)(O)OCC2OC(n3cnc4c(N)ncnc43)C(OC)C2OP(=O)([O-])OCC2OC(n3cnc4c(=O)[nH]c(N)nc43)C(O)C2O)OC(n2c[n+](Cc3ccc(Cl)cc3)c3c(=O)[nH]c(N)nc32)C1O` (stereo not shown) [Compound D92], in test [1] (method of Example 20 (Table 4)), the Final product mass was determined as 109 µg. Further, the Relative fluorescence reading in test [2] (setting [3]) is reported as 1.78.
The molecule `CNc1ccccc1C(=O)NCCCCCC(=O)NC[C@H]1[C@@H](O)[C@H](n2c[n+](C)c3c(=O)[nH]c(N)nc32)O[C@@H]1COP(=O)([O-])OP(=O)(O)OP(=O)(O)OC[C@H]1O[C@@H](n2cnc3c(N)ncnc32)[C@H](OC)[C@@H]1OP(=O)(O)OC[C@H]1O[C@@H](n2cnc3c(=O)[nH]c(N)nc32)[C@H](O)[C@@H]1O` [Compound S166] showed a Final product mass in test [1] (setting [4]) of 91 µg. In test [2] (setting [5]), this molecule displayed a Relative fluorescence reading of 0.87.
Take `COCC1(F)C(COP(=O)(O)OP(=O)(O)OP(=O)(O)OCC2OC(n3cnc4c(N)ncnc43)C(OC)C2OP(=O)([O-])OCC2OC(n3cnc4c(=O)[nH]c(N)nc43)C(O)C2O)OC(n2c[n+](Cc3ccc(OC)cc3)c3c(=O)[nH]c(N)nc32)C1O` (stereo not shown) [Compound D94]: the Final product mass in test [1] (method of Example 20 (Table 4)) is reported as 116 µg. Further, the Relative fluorescence reading in test [2] (setting [3]) came out at 1.85.
Regarding `C=CC[n+]1cn(C2OC(COP(=O)(O)OP(=O)(O)OP(=O)(O)OCC3OC(n4cnc5c(N)ncnc54)C(OC)C3OP(=O)([O-])OCC3OC(n4cnc5c(=O)[nH]c(N)nc54)C(O)C3O)C(F)(COC)C2O)c2nc(N)[nH]c(=O)c21` (stereo not shown) [Compound D90], the Final product mass in test [1] (method of Example 20 (Table 4)) is on record as 100 µg. Moreover, the Relative fluorescence reading in test [2] (setting [3]) was determined as 1.44.
In the case of `COCC1(F)C(COP(=O)(O)CP(=O)(O)OP(=O)(O)OCC2OC(n3cnc4c(N)ncnc43)C(OC)C2OP(=O)([O-])OCC2OC(n3cnc4c(=O)[nH]c(N)nc43)C(O)C2O)OC(n2c[n+](C)c3c(=O)[nH]c(N)nc32)C1O` (stereo not shown) [Compound D23], the Final product mass in test [1] (method of Example 20 (Table 4)) was 96 µg. Moreover, the Relative fluorescence reading in test [2] (setting [3]) is given as 0.93.
`COCCOCCOCCOCCOCC(=O)NC[C@H]1[C@@H](O)[C@H](n2c[n+](C)c3c(=O)[nH]c(N)nc32)O[C@@H]1COP(=O)([O-])OP(=O)(O)OP(=O)(O)OC[C@H]1O[C@@H](n2cnc3c(N)ncnc32)[C@H](OC)[C@@H]1OP(=O)(O)OC[C@H]1O[C@@H](n2cnc3c(=O)[nH]c(N)nc32)[C@H](O)[C@@H]1O` [Compound 6] displayed a Final product mass in test [1] (setting [4]) of 117 µg. Moreover, the Relative fluorescence reading in test [2] (setting [5]) came to 1.90.
In test [1] (method of Example 20 (Table 4)), `COCC1(F)C(COP(=O)(O)OP(O)(=S)OP(=O)(O)OCC2OC(n3cnc4c(N)ncnc43)C(OC)C2OP(=O)([O-])OCC2OC(n3cnc4c(=O)[nH]c(N)nc43)C(O)C2O)OC(n2c[n+](C)c3c(=O)[nH]c(N)nc32)C1O` (stereo not shown) [Compound D97] gave a Final product mass of 91 µg. Also, in test [2] (setting [3]), the Relative fluorescence reading is 2.05.
Take `CNc1ccccc1C(=O)NC[C@H]1[C@@H](O)[C@H](n2c[n+](C)c3c(=O)[nH]c(N)nc32)O[C@@H]1COP(=O)([O-])OP(=O)(O)OP(=O)(O)OC[C@H]1O[C@@H](n2cnc3c(N)ncnc32)[C@H](OC)[C@@H]1OP(=O)(O)OC[C@H]1O[C@@H](n2cnc3c(=O)[nH]c(N)nc32)[C@H](O)[C@@H]1O` [Compound S165]: in test [1] (setting [4]), the Final product mass is 88 µg. This molecule also displayed a Relative fluorescence reading in test [2] (setting [5]) of 0.34.
Molecule `CC[n+]1cn(C2OC(COP(=O)(O)OP(=O)(O)OP(=O)(O)OCC3OC(n4cnc5c(N)ncnc54)C(OC)C3OP(=O)([O-])OCC3OC(n4cnc5c(=O)[nH]c(N)nc54)C(O)C3O)C(F)(COC)C2O)c2nc(N)[nH]c(=O)c21` (stereo not shown) [Compound D89] displayed a Final product mass in test [1] (method of Example 20 (Table 4)) of 110 µg. This molecule registered a Relative fluorescence reading in test [2] (setting [3]) of 1.52.
The matching figures for `CNc1ncnc2c1ncn2C1OC(COP(=O)(O)OP(=O)(O)OP(=O)(O)OCC2OC(n3c[n+](C)c4c(=O)[nH]c(N)nc43)C(O)C2(F)COC)C(OP(=O)([O-])OCC2OC(n3cnc4c(=O)[nH]c(N)nc43)C(O)C2O)C1OC` (stereo not shown) [Compound D96]: 94 µg and 2.96.
Consider `CNc1nc2c(c(=O)[nH]1)[n+](C)cn2[C@@H]1O[C@H](COP(=O)(O)OP(=O)(O)OP(=O)(O)OC[C@H]2O[C@@H](n3cnc4c(N)ncnc43)[C@H](OC)[C@@H]2OP(=O)([O-])OC[C@H]2O[C@@H](n3cnc4c(=O)[nH]c(N)nc43)[C@H](O)[C@@H]2O)[C@@](F)(COC)[C@H]1O` [Compound D87], for which, in test [1] (method of Example 20 (Table 4)), the Final product mass stood at 98 µg. The molecule further showed a Relative fluorescence reading in test [2] (setting [3]) of 1.55.
